Experimental data reported in patent US6743443B1, “Tablets immediately disintegrating in the oral cavity” (Eisai Co., Ltd., priority 1998, dated 2004).

Experiment: physchem
Settings: 37 °C
From the text: However, there has been no report yet for an intraoral quickly disintegrating tablet containing a slightly soluble pharmaceutical agent having an improved solubility as such and for a method of manufacturing the tablet. One of the reasons therefor is that it is difficult for satisfying all of the requirements for improving the solubility of the slightly soluble pharmaceutical agent, for a quick disintegration in the mouth and for ensuring a good touch on the tongue upon disintegration. Many of the pharmaceutical ingredients acting as a cyclic GMP phosphodiesterase inhibitor are the compounds having a relatively low solubility and are within a category of the slightly soluble pharmaceutical agents.

solubility (pH 1.2, simulated gastric fluid): 130 µg/mL
solubility (pH 6.8, aqueous buffer): 6.3 µg/mL
Structure (SMILES): COc1ccc(CNc2nnc(N3CCC(O)CC3)c3ccc(C#N)cc23)cc1Cl.Cl [formula (IX), 4-(3-chloro-4-methoxybenzyl)amino-6-cyano-1-(4-hydroxypiperidino)phthalazine hydrochloride]
